The source of these data is US10526345B2, “Compounds as GPR119 agonists” (Mankind Pharma Ltd., priority 2016, dated 2020).

In the first assay the target is T1, hGPR119 (Homo sapiens, UniProt Q8TDV5).
T1 construct: expressed in transfected cells; host or cells: CHO
T1 sequence (Q8TDV5 1-335): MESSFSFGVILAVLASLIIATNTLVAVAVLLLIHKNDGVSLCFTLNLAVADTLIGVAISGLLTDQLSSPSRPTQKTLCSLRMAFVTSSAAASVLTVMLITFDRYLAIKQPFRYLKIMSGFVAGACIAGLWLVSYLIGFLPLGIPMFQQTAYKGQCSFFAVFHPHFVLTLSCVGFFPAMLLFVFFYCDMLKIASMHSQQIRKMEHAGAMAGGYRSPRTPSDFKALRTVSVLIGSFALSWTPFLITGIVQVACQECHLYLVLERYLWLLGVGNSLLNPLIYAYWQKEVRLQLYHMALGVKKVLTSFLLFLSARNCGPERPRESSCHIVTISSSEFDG
The experiment in a line: In vitro cyclic AMP assay (Cisbio dynamic 2 HTRF kit) in CHO-hGPR119 cells. It counts as cell-based. As to conditions: 1 h, cAMP, compound at 1 μM, 60 min, read-out: Induction (% induction at 1 μM). How it is done: cAMP measurements were done using Cisbio dynamic 2 HTRF kit according to the manufacturer's protocol. Briefly, CHO-hGPR119 cells were plated at a cell density of 5000 cells/well/5 μl into a white small volume 384 well plate. The final concentrations of IBMX and DMSO used were 1 mM and 0.5% respectively. Cells were treated with various concentrations of the test compound for 60 min at room temperature. Cells were lysed by buffer containing Anti-cAMP antibody and d2-cAMP reagents and incubated for 1 hour at room temperature. HTRF was measured at 337 nm excitation and emission wavelengths of 665 nm and 620 nm on a microplate reader (Flurostar, BMG Labtech). Graphpad prism software was utilized for EC50 determinations.
For orientation: Time-resolved FRET reads energy transfer from a long-lived donor to a nearby acceptor.
As to `Cc1cc2nc(OC(C)C3CCN(c4nc(C(C)C)no4)CC3)sc2nc1-c1ccc(S(C)(=O)=O)cc1` (stereo not drawn) [Compound 1039, 3-isopropyl-5-(4-(1-((6-methyl-5-(4-(methylsulfonyl)phenyl)thiazolo[5,4-b]pyridin-2-yl)oxy)ethyl)piperidin-1-yl)-1,2,4-oxadiazole], the activation at 1 µM was determined as 20%.

On to `CC(C)c1noc(N2CCC([C@H](C)Oc3nc4ccc(-c5ccc(S(=O)(=O)C6CC6)cc5)nc4s3)CC2)n1` [Compound 1095, (S)-5-(4-(1-((5-(4-(cyclopropylsulfonyl)phenyl)thiazolo[5,4-b]pyridin-2-yl)oxy)ethyl)piperidin-1-yl)-3-isopropyl-1,2,4-oxadiazole], for which the activation at 1 µM came to 84%.

For `CC(C)OC(=O)N1CCN(c2nc3ccc(-c4ccc(S(C)(=O)=O)cc4)nc3s2)CC1` [Compound 1012, isopropyl 4-(5-(4-(methylsulfonyl)phenyl)thiazolo[5,4-b]pyridin-2-yl)piperazine-1-carboxylate], the activation at 1 µM was found to be 5%.

With `CCCS(=O)(=O)N1CCC(C(C)Oc2nc3ccc(-c4ccc(S(C)(=O)=O)cc4)nc3s2)CC1` (stereo not drawn) [Compound 1115, 5-(4-(methylsulfonyl)phenyl)-2-(1-(1-(propylsulfonyl)piperidin-4-yl)ethoxy)thiazolo[5,4-b]pyridine], the activation at 1 µM came out at 12%.

With `C=C(C)c1cnc(N2CCC(C(C)Oc3nc4ccc(-c5ccc(S(C)(=O)=O)cc5)nc4s3)CC2)nc1` (stereo not drawn) [Compound 1118, 5-(4-(methylsulfonyl)phenyl)-2-(1-(1-(5-(prop-1-en-2-yl)pyrimidin-2-yl)piperidin-4-yl)ethoxy)thiazolo[5,4-b]pyridine], the activation at 1 µM worked out at 47%.

Take `CC(C)OC(=O)N1CCC(c2nc3ccc(-c4ccc(S(C)(=O)=O)cc4)nc3s2)CC1` [Compound 1013, isopropyl 4-(5-(4-(methylsulfonyl)phenyl)thiazolo[5,4-b]pyridin-2-yl)piperidine-1-carboxylate]: the activation at 1 µM turned out to be 11%.

In the case of `CC(C)c1noc(N2CCC([C@@H](C)Oc3nc4ccc(-c5ccc(S(C)(=O)=O)nc5)nc4s3)C2)n1` (stereo partly drawn) [Compound 1140, 2-((R)-1-(1-(3-isopropyl-1,2,4-oxadiazol-5-yl)pyrrolidin-3-yl)ethoxy)-5-(6-(methylsulfonyl)pyridin-3-yl)thiazolo[5,4-b]pyridine], the activation at 1 µM came to 4%.

Regarding `CNS(=O)(=O)c1ccc(-c2ccc3nc(OC(C)C4CCN(c5nc(C(C)C)no5)CC4)sc3n2)cc1` (stereo not drawn) [Compound 1061, 4-(2-(1-(1-(3-isopropyl-1,2,4-oxadiazol-5-yl)piperidin-4-yl)ethoxy)thiazolo[5,4-b]pyridin-5-yl)-N-methylbenzenesulfonamide], the activation at 1 µM turned out to be 48%.

As to `CC(Oc1nc2ccc(-c3ccc(S(C)(=O)=O)nc3)nc2s1)C1CCN(c2cnc(Cl)cn2)CC1` (stereo not drawn) [Compound 1151, 2-(1-(1-(5-chloropyrazin-2-yl)piperidin-4-yl)ethoxy)-5-(6-(methylsulfonyl)pyridin-3-yl)thiazolo[5,4-b]pyridine], the activation at 1 µM came to 66%.

Turning to `CN(C)C(=O)N1CC=C(c2nc3ccc(-c4ccc(S(C)(=O)=O)cc4)nc3s2)CC1` [Compound 1027, N,N-dimethyl-4-(5-(4-(methylsulfonyl)phenyl)thiazolo[5,4-b]pyridin-2-yl)-5,6-dihydropyridine-1(2H)-carboxamide], the activation at 1 µM came to 3%.

`CCc1cnc(N2CCC(C(=O)Nc3nc4ccc(-c5ccc(S(C)(=O)=O)cc5)nc4s3)CC2)nc1` [Compound 1014, 1-(5-ethylpyrimidin-2-yl)-N-(5-(4-(methylsulfonyl)phenyl)thiazolo[5,4-b]pyridin-2-yl)piperidine-4-carboxamide]: the activation at 1 µM was determined as 5%.

With `COCCS(=O)(=O)c1ccc(-c2ccc3nc(N4CCC(c5nc(C(C)C)no5)CC4)sc3n2)cc1` [Compound 1078, 3-isopropyl-5-(1-(5-(4-((2-methoxyethyl)sulfonyl)phenyl)thiazolo[5,4-b]pyridin-2-yl)piperidin-4-yl)-1,2,4-oxadiazole], the activation at 1 µM worked out at 24%.

On to `CC(C)c1noc(N2CCC(C(C)Oc3nc4ccc(-c5cnc(Cl)nc5)nc4s3)CC2)n1` (stereo not drawn) [Compound 1116, 5-(4-(1-((5-(2-chloropyrimidin-5-yl)thiazolo[5,4-b]pyridin-2-yl)oxy)ethyl)piperidin-1-yl)-3-isopropyl-1,2,4-oxadiazole], for which the activation at 1 µM was 61%.

As for `CCCc1cnc(N2CCC(C(C)Oc3nc4ncc(-c5ccc(S(C)(=O)=O)cc5)nc4s3)CC2)nc1` (stereo not drawn) [Compound 1110, 6-(4-(methylsulfonyl)phenyl)-2-(1-(1-(5-propylpyrimidin-2-yl)piperidin-4-yl)ethoxy)thiazolo[4,5-b]pyrazine], the activation at 1 µM worked out at 78%.

For `CC(C)c1noc(C2CCN(c3nc4ccc(-c5ccc(S(C)(=O)=O)cc5)nc4s3)C2)n1` (stereo not drawn) [Compound 1021, 3-isopropyl-5-(1-(5-(4-(methylsulfonyl)phenyl)thiazolo[5,4-b]pyridin-2-yl)pyrrolidin-3-yl)-1,2,4-oxadiazole], the activation at 1 µM was determined as 13%.

Turning to `CCc1cnc(N2CCN(c3nc4ccc(Oc5ccc(S(C)(=O)=O)cc5)nc4s3)CC2)nc1` [Compound 1010, 2-(4-(5-ethylpyrimidin-2-yl)piperazin-1-yl)-5-(4-(methylsulfonyl)phenoxy)thiazolo[5,4-b]pyridine], the activation at 1 µM turned out to be 8%.

For the molecule `CS(=O)(=O)c1ccc(-c2nc3ccc(OCC4CCN(Cc5ccccc5)CC4)nc3s2)cc1` [Compound 1009, 5-((1-benzylpiperidin-4-yl)methoxy)-2-(4-(methyslulfonyl)phenyl)thiazolo[5,4-b]pyridine], the activation at 1 µM amounted to 5%.

On to `CC(C)c1noc(N2CCC(C(C)Oc3nc4ccc(-c5ccc(N6CCNC6=O)nc5)nc4s3)CC2)n1` (stereo not drawn) [Compound 1144, 1-(5-(2-(1-(1-(3-isopropyl-1,2,4-oxadiazol-5-yl)piperidin-4-yl)ethoxy)thiazolo[5,4-b]pyridin-5-yl)pyridin-2-yl)imidazolidin-2-one], for which the activation at 1 µM was determined as 69%.

As for `COCCNS(=O)(=O)c1ccc(-c2ccc3nc(OC(C)C4CCN(c5nc(C(C)C)no5)CC4)sc3n2)cc1` (stereo not drawn) [Compound 1066, 4-(2-(1-(1-(3-isopropyl-1,2,4-oxadiazol-5-yl)piperidin-4-yl)ethoxy)thiazolo[5,4-b]pyridin-5-yl)-N-(2-methoxyethyl)benzenesulfonamide], the activation at 1 µM was 30%.

Regarding `CC(C)c1noc(N2CCC(C(Oc3nc4ccc(-c5ccc(S(C)(=O)=O)cc5)nc4s3)C3CC3)CC2)n1` (stereo not drawn) [Compound 1040, 5-(4-(cyclopropyl((5-(4-(methylsulfonyl)phenyl)thiazolo[5,4-b]pyridin-2-yl)oxy)methyl)piperidin-1-yl)-3-isopropyl-1,2,4-oxadiazole], the activation at 1 µM came to 48%.

As to `CC(C)c1noc(N2CCC([C@H](C)Oc3nc4ccc(-c5ccc(S(C)(=O)=O)nc5)nc4s3)C2)n1` (stereo partly drawn) [Compound 1141, 2-((S)-1-(-(3-isopropyl-1,2,4-oxadiazol-5-yl)pyrrolidin-3-yl)ethoxy)-5-(6-(methylsulfonyl)pyridin-3-yl)thiazolo[5,4-b]pyridine], the activation at 1 µM was 3%.

Regarding `Cc1cc(S(C)(=O)=O)ccc1-c1ccc2nc(O[C@H](C)C3CCN(c4nc(C(C)C)no4)CC3)sc2n1` [Compound 1169, 2-((R)-1-(1-(3-isopropyl-1,2,4-oxadiazol-5-yl)piperidin-4-yl)ethoxy)-5-(2-methyl-4-(methylsulfonyl)phenyl)thiazolo[5,4-b]pyridine], the activation at 1 µM was 43%.

`CC(C)c1noc(N2CCC(C(C)Oc3nc4ccc(-c5ccc(C(=O)N6CCOCC6)cc5)nc4s3)CC2)n1` (stereo not drawn) [Compound 1051, (4-(2-(1-(1-(3-isopropyl-1,2,4-oxadiazol-5-yl)piperidin-4-yl)ethoxy)thiazolo[5,4-b]pyridin-5-yl)phenyl)(morpholino)methanone]: the activation at 1 µM stood at 24%.

Regarding `CC(C)c1noc(N2CCC(C(C)Oc3nc4ccc(-c5cncs5)nc4s3)CC2)n1` (stereo not drawn) [Compound 1121, 3-isopropyl-5-(4-(1-((5-(thiazol-5-yl)thiazolo[5,4-b]pyridin-2-yl)oxy)ethyl)piperidin-1-yl)-1,2,4-oxadiazole], the activation at 1 µM is 30%.

Take `CC(C)c1noc(N2CCC(C(C)Oc3nc4ccc(-c5ccn(C)c(=O)c5)nc4s3)CC2)n1` (stereo not drawn) [Compound 1127, 4-(2-(1-(1-(3-isopropyl-1,2,4-oxadiazol-5-yl)piperidin-4-yl)ethoxy)thiazolo[5,4-b]pyridin-5-yl)-1-methylpyridin-2(1H)-one]: the activation at 1 µM was 50%.

For `CC(C)c1noc(N2CCC([C@H](C)Oc3nc4ccc(-c5ccc(C(=O)N(C)C)cc5)nc4s3)CC2)n1` [Compound 1045, (S)-4-(2-(1-(1-(3-isopropyl-1,2,4-oxadiazol-5-yl)piperidin-4-yl)ethoxy)thiazolo[5,4-b]pyridin-5-yl)-N,N-dimethylbenzamide], the activation at 1 µM stood at 31%.

The assay is the same for the next values; noted with them: cAMP, compound at 1 μM, 60 min.
Take `CC(C)c1noc(N2CCC([C@H](C)Oc3nc4ccc(-c5ccncc5F)nc4s3)CC2)n1` [Compound 1076, (S)-5-(4-(1-((5-(3-fluoropyridin-4-yl)thiazolo[5,4-b]pyridin-2-yl)oxy)ethyl)piperidin-1-yl)-3-isopropyl-1,2,4-oxadiazole]: the “Induction (% induction at 1 μM)” value came to 35%.
